Assay results: US5767297A, “Taxoid derivative and method of producing thereof” (Ensuiko Sugar Refining Co., Ltd., priority 1997, dated 1998)
In brackets after ≈: the same amount, converted by molar mass.

How the values were obtained:
[1] = literature, I. Ringer et al.; cited from earlier work
[2] = water, 18 h
Experimental: (§1) After stirring, supernatant was filtered by a membrane filter (0.45,μm) and a filtate was analyzed by HPLC.
(§2) Colum: Taxil 5μ (4.6×250 mm), made by MetaChem
Solvent: MeOH/H2 O (80/20)
Detector: photodiode detector (230 nm)

[3] = solubility in water (stirred 18 hours, filtrate analyzed by HPLC)
Experimental: as §1, §2
Solvent: MeOH/H2 O (80/20)
Detector: photodiode detector (230 nm)

[4] = stability in aqueous solutions; assay type: physicochemical
[5] = system: tubulin; assay: microtubule depolymerization-inhibiting activity (absorbance at 350 nm after adding calcium chloride); assay type: biochemical; conditions: relative to paclitaxel; 5 μM
Experimental: Next, each of the above-described samples is mixed with tubulin (a main constituting protein of microtubule) and allowed to react at 37° C. for 15 minutes. Absorbance at 350 nm of the reaction solution was measured at 2, 5, 10 and 15 minutes after initiation of the reaction. Also, after the reaction ended, calcium chloride was added and, 5 minutes after this adding, absorbance at 350 nm was again measured. From each measured value was determined relative activity of each sample in the case that polymerization-promoting activity and depolymerization-inhibiting activity were taken as 100, and the results are shown in Table 2.

Compound	solubility at 18 h [3] [µg/mL]	stability in aqueous solutions [4]	further results
CC(=O)O[C@@]12CO[C@@H]1C[C@H](O)[C@@]1(C)C(=O)[C@H](O)C3=C(C)[C@@H](OC(=O)[C@H](O)[C@@H](NC(=O)OC(C)(C)C)c4ccccc4)C[C@@](O)([C@@H](OC(=O)c4ccccc4)[C@H]21)C3(C)C [docetaxel]			solubility in water relative to paclitaxel [1]: 1.3 times
CC(=O)O[C@H]1C(=O)[C@@]2(C)[C@H]([C@H](OC(=O)c3ccccc3)[C@]3(O)C[C@H](OC(=O)[C@H](O)[C@@H](NC(=O)c4ccccc4)c4ccccc4)C(C)=C1C3(C)C)[C@]1(OC(C)=O)CO[C@@H]1C[C@@H]2O [Paclitaxel, paclitaxel]			Solubility [2]: 0.4 µg/mL (≈ 0.468 µM)
CC(=O)O[C@H]1C(=O)[C@@]2(C)[C@H]([C@H](OC(=O)c3ccccc3)[C@]3(O)C[C@H](OC(=O)[C@H](OC(=O)COC4O[C@H](CO)[C@@H](O)[C@H](O)[C@H]4O)[C@@H](NC(=O)c4ccccc4)c4ccccc4)C(C)=C1C3(C)C)[C@]1(OC(C)=O)CO[C@@H]1C[C@@H]2O (some centres unmarked) [2'-S-paclitaxel, Glucosyloxyacetyl-2'-paclitaxel]	30.6 (≈ 28.5 µM)	decomposed to paclitaxel in aqueous solutions and unstable in aqueous solutions	
CC(=O)O[C@H]1C(=O)[C@]2(C)[C@@H](OC(=O)COC3O[C@H](CO)[C@@H](O)[C@H](O)[C@H]3O)C[C@H]3OC[C@@]3(OC(C)=O)[C@H]2[C@H](OC(=O)c2ccccc2)[C@]2(O)C[C@H](OC(=O)[C@H](O)[C@@H](NC(=O)c3ccccc3)c3ccccc3)C(C)=C1C2(C)C (some centres unmarked) [7-S-paclitaxel, Glucosyloxyacetyl-7-paclitaxel]	14.7 (≈ 13.7 µM)		depolymerization-inhibiting activity compared with paclitaxel (in words) [5]: more than twice as potent as that of paclitaxel
CC(=O)O[C@H]1C(=O)[C@]2(C)[C@@H](OC(=O)COC3O[C@H](CO)[C@@H](O)[C@H](O)[C@H]3O)C[C@H]3OC[C@@]3(OC(C)=O)[C@H]2[C@H](OC(=O)c2ccccc2)[C@]2(O)C[C@H](OC(=O)[C@H](OC(=O)COC3O[C@H](CO)[C@@H](O)[C@H](O)[C@H]3O)[C@@H](NC(=O)c3ccccc3)c3ccccc3)C(C)=C1C2(C)C (some centres unmarked) [2',7-S-paclitaxel, Diglucosyloxyacetyl-2',7-paclitaxel]	48.4 (≈ 37.4 µM)	decomposed to paclitaxel in aqueous solutions and unstable in aqueous solutions	
